Entries after “also recorded” stand apart in the source; their conditions may differ.
What was measured:
[1] = Same clinical trial: fasting serum lipids (cholesterol, LDL, Apo-B, FFA); assay type: in vivo, human
Method: Changes in levels of triglycerides, total cholesterol, high-density lipoproteins (HDL), low-density lipoproteins (LDL), very-low-density lipoproteins (VLDL), apolipoprotein B (Apo-B), and free fatty acids (FFA).
(§1) This multicenter, double-blind, parallel-group, placebo-controlled, randomized, fixed-dose clinical study was designed to evaluate 1200 mg/day D-chiro-inositol versus placebo in 270 obese patients with type 2 diabetes mellitus who had been receiving sulfonylureas for at least 3 months without reaching their target or with suboptimal response.
(§2) The study involved 5 scheduled visits. The first visit was the screening visit, followed by a baseline visit up to 2 weeks later. Patients were randomized at the baseline visit, half to 1200 mg/day D-chiro-inositol and half to placebo, and subsequently began 13 weeks of treatment with blinded study medication. There were 3 visits for safety and efficacy assessments, at 4, 8, and 13 weeks after beginning treatment. The 13-week visit was the final visit. Patients arrived at the investigational site in a fasted state for all visits. Assessments were to be done at the same time of day at each visit by the same responsible personnel. Medication was taken once a day at the same time of morning, except on visit days, on which the dose was delayed until just after fasting blood samples had been collected.
(§3) Biomarkers: A meal tolerance test (MTT) was performed at baseline (Visit 2) and the final visit (Visit 5). In addition, blood was drawn at every visit for assessment of fasting glucose and insulin, HbA1c, C-peptide, fructosamine, FFA, triglycerides, total cholesterol, HDL, VLDL, LDL, and Apo-B levels.
(§4) Secondary Efficacy Variable (s) and Analyses. Since all secondary efficacy parameters were continuous, they were analyzed in the same manner as described above for the primary efficacy parameter, with treatment group and baseline values for the relevant parameter used as predictors. These secondary efficacy parameters included:
Total cholesterol, triglycerides, HDL, LDL, VLDL, Apo-B, and FFA levels;

[2] = oral or intravenous route; cited from earlier work
[3] = streptozotocin-treated rats, obese Zucker rats, or normal rats given a glucose load; cited from earlier work
[4] = Subgroup analysis of the clinical trial: lipid lowering drug / D-chiro-inositol effects on LDL cholesterol; assay type: in vivo, human; conditions: type 2 diabetic patients on sulfonylurea, with or without lipid lowering medication
Method: Due to the observation of lipid lowering effects seen in the DCI group, the clinical trial described in EXAMPLE 1 was further analyzed for synergistic interactions between D-chiro-inositol and lipid lowering medications. Certain patients within the trial were treated according to standard of care with HMC-CoA inhibitors (LIPITOR®, LESCOL®, ZOCOR®, MEVACOR®, PRAVACHOL®), gemfibrozil, or a combination of HMC-CoA and gemfibrozil. No inclusion or exclusion criteria were established for the efficacy of the lipid lowering drug efficacy in the patient population. As stated supra, these patients were being sub optimally treated with a sulfonylurea prior to beginning the clinical trial. The patients could not change their lipid lowering dose and/or regimen during the length of the study.

[5] = Same clinical trial: insulin during meal tolerance test (MTT); assay type: in vivo, human
Method: Changes in area-under-the-curve (AUC) and 120-minute insulin and glucose levels during the mcal tolerance test (MTT).
as §1, §2, §3, §4
AUC (and 120-minute) insulin and glucose levels during the MTT;

[6] = Randomized placebo-controlled clinical trial of D-chiro-inositol with sulfonylureas: glycemic markers (HbA1c, fructosamine, fasting glucose); assay type: in vivo, human; conditions: for Difference in HbA1c change between D-chiro-inositol and placebo: baseline to endpoint
Method: The objective of this study was to assess the efficacy and safety of D-chiro-inositol when administered as a single oral dose of 1200 mg/day compared to placebo, each in combination with sulfonylureas, for 3 months. Patients were required to have been on sulfonylureas for 3 months prior to study entry without reaching their target dose or with a suboptimal response.
as §1, §2
Patients receiving D-chiro-inositol received four 300 mg capsules once daily for a total daily dose of 1200 mg; placebo patients took 4 placebo capsules once daily. Doses were taken orally, generally in the mornings. Patients were instructed to take their dose in the morning at the same time each day, except on visit days. On visit days, dosing was to be done at the clinic. No instructions were given regarding when to take medication in relation to meals on non-visit days.
as §3
Primary Efficacy Variable(s) and Analyses. The primary analysis was based on the change from baseline to endpoint in HbA1c level using the modified ITT and evaluable study populations. The analysis was done using an analysis of covariance (ANCOVA) model with treatment group and the baseline HbA1c value as predictors.
Secondary Efficacy Variable (s) and Analyses. Since all secondary efficacy parameters were continuous, they were analyzed in the same manner as described above for the primary efficacy parameter, with treatment group and baseline values for the relevant parameter used as predictors.

[7] = evaluable patients with FPG ≦ 180 mg/dL
[8] = evaluable patients, 1200 mg/day plus sulfonylurea
[9] = MTT, evaluable patients with FPG ≦ 180 mg/dL
[10] = MTT, evaluable patients, 1200 mg/day plus sulfonylurea
[11] = patients with FPG ≦ 180 mg/dL, 1200 mg/day oral plus sulfonylurea

SMILES: OC1C(O)C(O)C(O)C(O)C1O [D-chiro-inositol]
- Apo-B, mean change [1, 7]: -4.00 mg/dL
- Cholesterol, mean change [1, 7]: -5.31 mg/dL
- LDL, mean change [1, 7]: -4.14 mg/dL
- Decrease in LDL ([1]; evaluable patients with FPG>180 mg/dL, p=0.036 vs placebo): 2.02 mg/dL
- Apo-B, mean change at endpoint [1, 8]: -1.26 mg/dL
- Cholesterol, mean change at endpoint [1, 8]: -2.74 mg/dL
- FFA, mean change at endpoint [1, 8]: −0.07 mEq/L
- LDL, mean change at endpoint [1, 8]: -2.95 mg/dL
- Disappearance rate of plasma glucose and insulin [2]: significantly increased the disappearance rate of both plasma glucose and insulin
- Glycemic control [3]: significantly improved glyceimic control
- Effect on LDL cholesterol (FIG. 3) [4]: significantly reduced the increase of LDL cholesterol
- Change in insulin AUC from baseline to endpoint, median of individual subjects (FIG. 2) ([5]; DCI+SU group): slightly increased the insulin AUC
- 120-min. insulin, mean change [5, 9]: 5.09 μU/mL
- AUC insulin, mean change [5, 9]: 1070.8 μU/mL·hr
- 120-min. insulin, mean change at endpoint [5, 10]: 3.50 μU/mL
- AUC insulin, mean change at endpoint [5, 10]: 484.4 μU/mL·hr
- Insulin response to meal tolerance test over the treatment period (FIGS. 1A, 1B) ([5]; subjects with fasting blood glucose ≦180 mg/dl, DCI+SU, 13 weeks, listed as DCI): maintained this response after the 13 week course of treatment; also recorded: maintains a constant insulin response over the testing period
- Fasting glucose, mean change [6, 7]: 12.67 mg/dL
- Fructosamine, mean change [6, 7]: -15.22 µmol/L
- Decrease in mean HbA1c level from baseline to endpoint ([6]; evaluable patients with FPG≦180 mg/dL, stated as a decrease): 0.53%
- Mean change in HbA1c from baseline to endpoint, mean (SD) ([6]; evaluable patients, LOCF at endpoint (13 weeks), 1200 mg/day oral plus sulfonylurea): −0.16 (1.03) %
- Difference in HbA1c change between D-chiro-inositol and placebo ([6]; evaluable population): 0.36%
- Decrease in mean fructosamine levels ([6]; evaluable population, p=0.159 vs placebo): 5.32 µmol/L
- Decrease in mean HbA1c levels from baseline to endpoint ([6]; evaluable population, stated as a decrease): 0.16%
- Mean change in HbA1c from baseline to endpoint, mean (SD) ([6]; patients with FPG ≦ 180 mg/dL, LOCF at endpoint, 1200 mg/day oral plus sulfonylurea): −0.53 (1.03) %
- Mean change in HbA1c from baseline to Week 4, mean (SD) [6, 11]: −0.47 (0.68) %
- Mean change in HbA1c from baseline to Week 8, mean (SD) [6, 11]: −0.57 (0.82) %
- Difference in HbA1c change between D-chiro-inositol and placebo ([6]; patients with FPG≦180 mg/dL): 0.80%
